Source: PMC9791402, “Yeast 9-1-1 complex acts as a sliding clamp for DNA synthesis by DNA polymerase ε” (The Journal of Biological Chemistry, 2022)

Target: T1, Polε (WT holoenzyme) (Saccharomyces cerevisiae, UniProt P21951)
T1 construct: gene POL2; four-subunit holoenzyme, GST tag on Pol2 cut with PreScission protease, gel filtration, expressed in yeast YRP654; with DNA polymerase epsilon subunit B; DNA polymerase epsilon subunit C; DNA polymerase epsilon subunit D
Assay: gel-based primer extension, […]-labeled primer
Assay type: biochemical
Conditions: 50 μM dCTP running start opposite a run of 5 template G; 5 mM MgCl2, pH 7.5, 30 °C

T1 sequence (P21951 whole entry): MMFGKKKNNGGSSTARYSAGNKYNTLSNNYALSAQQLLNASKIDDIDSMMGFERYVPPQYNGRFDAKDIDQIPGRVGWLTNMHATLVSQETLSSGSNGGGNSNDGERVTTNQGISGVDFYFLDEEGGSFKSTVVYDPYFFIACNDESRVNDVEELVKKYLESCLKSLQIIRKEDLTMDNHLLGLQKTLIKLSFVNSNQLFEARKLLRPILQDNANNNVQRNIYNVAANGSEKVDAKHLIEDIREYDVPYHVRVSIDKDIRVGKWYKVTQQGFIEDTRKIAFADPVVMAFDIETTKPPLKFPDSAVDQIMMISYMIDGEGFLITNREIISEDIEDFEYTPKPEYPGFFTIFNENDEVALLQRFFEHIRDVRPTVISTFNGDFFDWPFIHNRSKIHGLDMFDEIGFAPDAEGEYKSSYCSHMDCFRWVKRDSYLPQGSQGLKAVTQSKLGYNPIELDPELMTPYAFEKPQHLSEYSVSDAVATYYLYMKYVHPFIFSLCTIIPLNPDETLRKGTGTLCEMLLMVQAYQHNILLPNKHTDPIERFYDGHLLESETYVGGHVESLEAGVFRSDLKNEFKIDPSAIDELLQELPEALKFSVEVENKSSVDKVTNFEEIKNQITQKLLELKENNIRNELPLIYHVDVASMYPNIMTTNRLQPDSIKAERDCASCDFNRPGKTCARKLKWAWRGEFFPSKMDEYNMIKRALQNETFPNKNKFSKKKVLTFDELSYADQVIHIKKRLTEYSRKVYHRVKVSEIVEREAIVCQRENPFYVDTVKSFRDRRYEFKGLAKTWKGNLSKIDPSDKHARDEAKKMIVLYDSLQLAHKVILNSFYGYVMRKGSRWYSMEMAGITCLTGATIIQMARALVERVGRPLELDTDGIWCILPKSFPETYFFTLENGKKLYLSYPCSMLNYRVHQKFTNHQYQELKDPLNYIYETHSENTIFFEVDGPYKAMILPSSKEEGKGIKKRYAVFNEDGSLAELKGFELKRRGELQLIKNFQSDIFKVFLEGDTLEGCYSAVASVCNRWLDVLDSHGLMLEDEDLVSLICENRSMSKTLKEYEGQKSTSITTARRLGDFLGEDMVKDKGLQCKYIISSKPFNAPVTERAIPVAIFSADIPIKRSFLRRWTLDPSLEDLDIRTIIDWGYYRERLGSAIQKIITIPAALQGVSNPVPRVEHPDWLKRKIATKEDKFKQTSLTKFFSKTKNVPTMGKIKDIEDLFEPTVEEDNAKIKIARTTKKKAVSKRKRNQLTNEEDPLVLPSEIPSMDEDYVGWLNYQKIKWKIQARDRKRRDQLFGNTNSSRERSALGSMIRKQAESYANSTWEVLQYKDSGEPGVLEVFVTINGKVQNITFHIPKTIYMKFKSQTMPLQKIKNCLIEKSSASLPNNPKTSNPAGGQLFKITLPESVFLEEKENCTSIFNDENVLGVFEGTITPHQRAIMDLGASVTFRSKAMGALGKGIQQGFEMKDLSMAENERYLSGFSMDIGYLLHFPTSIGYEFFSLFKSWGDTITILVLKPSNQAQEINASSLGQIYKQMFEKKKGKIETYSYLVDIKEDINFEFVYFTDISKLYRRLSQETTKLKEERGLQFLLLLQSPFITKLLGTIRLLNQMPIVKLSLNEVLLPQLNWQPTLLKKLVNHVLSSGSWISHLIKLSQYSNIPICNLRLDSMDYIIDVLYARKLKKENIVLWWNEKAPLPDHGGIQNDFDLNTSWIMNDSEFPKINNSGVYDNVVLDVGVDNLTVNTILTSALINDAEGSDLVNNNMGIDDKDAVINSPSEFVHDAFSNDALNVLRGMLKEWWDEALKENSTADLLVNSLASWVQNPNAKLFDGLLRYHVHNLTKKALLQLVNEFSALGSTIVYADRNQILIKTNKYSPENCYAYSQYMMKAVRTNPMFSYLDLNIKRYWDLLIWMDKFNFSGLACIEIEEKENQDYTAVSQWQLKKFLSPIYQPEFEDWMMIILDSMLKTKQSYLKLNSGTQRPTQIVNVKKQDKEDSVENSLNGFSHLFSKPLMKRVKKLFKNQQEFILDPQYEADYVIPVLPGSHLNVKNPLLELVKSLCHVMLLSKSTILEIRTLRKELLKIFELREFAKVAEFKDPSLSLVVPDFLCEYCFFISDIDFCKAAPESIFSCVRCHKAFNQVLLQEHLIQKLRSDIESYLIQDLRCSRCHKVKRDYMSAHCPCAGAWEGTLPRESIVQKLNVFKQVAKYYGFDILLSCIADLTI
T1 sequence (P24482 whole entry partner): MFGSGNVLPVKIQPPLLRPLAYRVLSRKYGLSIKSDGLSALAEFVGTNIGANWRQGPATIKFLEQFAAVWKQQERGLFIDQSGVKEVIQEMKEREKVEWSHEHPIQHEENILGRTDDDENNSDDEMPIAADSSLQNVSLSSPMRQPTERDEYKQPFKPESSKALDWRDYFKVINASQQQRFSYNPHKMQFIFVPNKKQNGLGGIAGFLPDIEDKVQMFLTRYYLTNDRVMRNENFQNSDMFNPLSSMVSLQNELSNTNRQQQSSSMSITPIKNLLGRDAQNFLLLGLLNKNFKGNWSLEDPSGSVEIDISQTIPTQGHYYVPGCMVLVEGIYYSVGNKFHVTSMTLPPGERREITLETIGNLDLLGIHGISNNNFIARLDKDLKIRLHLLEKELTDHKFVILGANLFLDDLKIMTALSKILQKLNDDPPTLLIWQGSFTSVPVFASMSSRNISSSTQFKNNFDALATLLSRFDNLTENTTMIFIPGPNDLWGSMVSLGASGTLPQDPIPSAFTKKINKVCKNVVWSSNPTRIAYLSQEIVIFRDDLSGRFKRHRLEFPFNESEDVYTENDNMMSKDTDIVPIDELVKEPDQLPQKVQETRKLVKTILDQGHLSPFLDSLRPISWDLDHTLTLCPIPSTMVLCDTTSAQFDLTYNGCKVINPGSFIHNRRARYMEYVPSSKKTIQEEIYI
T1 sequence (P27344 whole entry partner): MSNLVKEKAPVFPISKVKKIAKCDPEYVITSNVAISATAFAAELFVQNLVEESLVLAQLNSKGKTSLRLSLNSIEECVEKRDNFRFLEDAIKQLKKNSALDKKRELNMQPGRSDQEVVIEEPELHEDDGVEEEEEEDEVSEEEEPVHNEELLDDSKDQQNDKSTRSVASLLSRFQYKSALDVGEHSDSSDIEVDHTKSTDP
T1 sequence (Q04603 whole entry partner): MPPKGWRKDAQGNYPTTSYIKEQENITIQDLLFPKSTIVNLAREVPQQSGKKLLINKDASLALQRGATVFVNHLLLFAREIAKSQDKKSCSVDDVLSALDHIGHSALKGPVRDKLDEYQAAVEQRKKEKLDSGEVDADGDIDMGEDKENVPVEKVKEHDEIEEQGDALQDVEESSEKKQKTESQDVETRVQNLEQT

## Nc1ccn([C@H]2C[C@H](O)[C@@H](COP(=O)(O)OP(=O)(O)OP(=O)(O)O)O2)c(=O)n1 [dCTP]
  gel-based primer extension, 32P-labeled primer: dCTP was added to initiate DNA synthesis opposite the template G residues
